Measurements as given in patent US10815229B1, “Benzenesulfonamide compounds and their use as therapeutic agents” (Xenon Pharmaceuticals Inc., priority 2016, dated 2020).

Key:
NaV1.6 = NaV1.6 (Homo sapiens (Human), UniProt Q9UQD0); experiment: Sodium Influx Assay (Flux), NaV1.6; details: read-out: Flux NaV1.6 IC50; Trex HEK293 cells, ANG2 dye; arithmetic mean
NaV1.1 = NaV1.1 (Homo sapiens (Human), UniProt P35498); experiment: Sodium Influx Assay (Flux), NaV1.1; format: cell-based; details: Trex HEK293 cells, ANG2 dye; arithmetic mean

Substance: (S)-2-fluoro-4-((1-(2-hydroxybenzyl)-pyrrolidin-3-yl)(methyDamino)-5-methyl-N-(thiazol-4-yl)benzenesulfonamide [Example 113]
- IC50 (NaV1.6): 0.258 µM
- IC50 (NaV1.1): 17.9 µM
